Reference: paper PMC3991326, “Optimal Translational Termination Requires C4 Lysyl Hydroxylation of eRF1” (Molecular Cell, 2014)

Biological target: T1, Jmjd4 (Homo sapiens, UniProt Q9H9V9)
T1 construct: recombinant from E. coli, Ni-NTA purified
T1 sequence (Q9H9V9 1-417): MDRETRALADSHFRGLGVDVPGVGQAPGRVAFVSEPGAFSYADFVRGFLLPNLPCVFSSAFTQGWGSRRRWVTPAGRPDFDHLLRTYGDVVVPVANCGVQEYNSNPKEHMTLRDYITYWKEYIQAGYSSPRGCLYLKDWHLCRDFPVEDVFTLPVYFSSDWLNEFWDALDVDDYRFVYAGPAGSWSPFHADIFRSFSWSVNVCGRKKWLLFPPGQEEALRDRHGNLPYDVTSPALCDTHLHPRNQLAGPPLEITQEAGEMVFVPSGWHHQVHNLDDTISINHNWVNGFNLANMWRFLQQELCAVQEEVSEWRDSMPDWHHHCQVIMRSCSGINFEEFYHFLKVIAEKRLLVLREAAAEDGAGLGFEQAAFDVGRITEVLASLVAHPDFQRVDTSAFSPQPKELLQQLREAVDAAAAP
Assay: in vitro hydroxylation of recombinant eRF1 K63
Assay type: biochemical
Settings: eRF1 as prime substrate; Fe(II), 2OG; competitive with 2OG (stated for 2OG oxygenases in general)

SMILES: O=C(O)CNC(=O)C(=O)O [NOG]
- in vitro hydroxylation of recombinant eRF1 K63: eRF1 K63 hydroxylation was significantly impaired by a 2OG competitive inhibitor (NOG, N-Oxalylglycine)
